Data on one compound can be found in patent US20250281480A1, “PHARMACEUTICAL DRY POWDER INHALATION FORMULATION” (Bayer Aktiengesellschaft, priority 2021, published 2025).

In one series the test system is plasma proteins. As to the kind of experiment: Protein binding via Transil assay, dog plasma. The series is classed as in vitro ADME. The source says: The distribution of a test substance between Transil® (phosphatidylcholine lipid bilayers immobilized on silica beads) and plasma is a characteristic feature of any pharmaceutical compound and is dependent on its extent of binding to plasma proteins. By comparing the distribution between Transil® and buffer with the distribution between Transil® and plasma of any species of interest, the unbound fraction in the plasma of the respective animal species can be calculated in vitro. The respective plasma and buffer concentrations were determined via a radioactivity analysis. A detailed description of the method and its validation was published by Schuhmacher et al. (2).

The subject of a further series is PAH-minipig. In words: PAH-minipig model, inhaled application on top of PAH standard-of-care. The series is classed as in vivo. The note with it: bosentan, sildenafil, Ilomedin, riociguat.
The test system of a further series is soluble guanylyl cyclase. In words: Efficacy under experimental conditions of oxidative stress (ODQ, L-NAME treatment). The format is in vivo.

Structures are written as SMILES.

For the compound `O=C(O)c1ccc(CCN(CCc2ccccc2OCc2ccc(-c3ccc(C(F)(F)F)cc3)cc2Cl)[C@H]2CCCc3nc(C(=O)O)ccc32)cc1` [Comparative example 11, (5S)-5-{[2-(4-carboxyphenyl)ethyl][2-(2-{[3-chloro-4′-(trifluoromethyl)[biphenyl]-4-yl]methoxy}phenyl)ethyl]amino}-5,6,7,8-tetrahydroquinoline-2-carboxylic Acid], the “fraction unbound, lower than comparative example 1” value in the series with plasma proteins was 10 times lower. In addition, the “effect on PAP on top of PAH standard-of-care” value with PAH-minipig is given as “selectively decreased elevated PAP”. Further, the “efficacy under oxidative stress” value with soluble guanylyl cyclase is reported as “enhanced”.
